From US6686449B2, “Mutant presenilin 1 polypeptides” (Pharmacia & Upjohn Company, priority 2000, dated 2004)
Where a SMILES comes first, the peptide text is derived from it. The star is where a group is joined. Cbz = O=C(OCc1ccccc1)*

What was measured:
Type in all cases: cell-based, human
[1] = tested on: Aβ1-40 production in H125.3-16 (APP-Sw-KK) and APA2 (APP-Sw-KK and PS1-wt) cells; assay: Inhibition assay, stable cell lines: Elisa of Aβ1-40 in conditioned media, PS1wt cell lines; conditions: PS1wt cell lines (H125.3-16, APA2)
Description: (§1) The purpose of the experiment was to assess the effect of compounds known or postulated to have an effect on processing at the proposed gamma cleavage site
(§2) The compounds used were L685,458 (Bachem Cat # H-5106) described by Li et al (15), one we have designated 512088, a fenchylamine sulfonamide inhibitor described by Rishton et al. (16). Z-Leu-Leu-Leu-H, also known as MG132 (Peptide Institute Cat # 3175-v) described by Tajima et al (17), and DMSO (Aldrich Cat # 27,685-5) as a vehicle control. All drugs were resuspended in DMSO at a concentration of 10 mM. Serial dilutions of the drugs were made in cell culture media [DMEM (Gibco cat # 11965-092) supplemented with 10% fetal bovine serum, 1 mM sodium pyruvate, 100 units/ml penicillin G, 100 ug/ml streptomycin sulfate, and 400 ug/ml Geneticin]. Stable cell lines used for drug testing were H125.3-16 (expressing APP-Sw-KK), APA2 (co-expressing APP-Sw-KK and PS1-wt), APB10 (co-expressing APP-Sw-KK and PS1-DTG385), and APD3 (co-expressing APP-Sw-KK and PS1-M146V). […] Conditioned media was harvested 24 hours post-treatment and analyzed in an Elisa assay for Aβ40 or Aβ42 levels (Described below). […]
(§3) Primary Antibody 6E10 was purchased from Senetek PLC (St. Louis, Mo.). […] Plates were read on a Molecular Devices Thermomax Plate Reader with integrated software that calculated the data and analyzed confidence values for the samples. […]

[2] = tested on: Aβ1-40 production in APB10 cells (APP-Sw-KK and PS1-DTG385); assay: Inhibition assay, stable cell lines: Elisa of Aβ1-40 in conditioned media, PS1-DTG385 cell line
Description: as §1, §2, §3

[3] = tested on: Aβ1-42 production in H125.3-16 (APP-Sw-KK) and APA2 (APP-Sw-KK and PS1-wt) cells; assay: Inhibition assay, stable cell lines: Elisa of Aβ1-42 in conditioned media, PS1wt cell lines; conditions: for dose response profile, Aβ1-42 production: PS1wt cell lines (H125.3-16, APA2)
Description: as §1
(§4) The compounds used were L685,458 (Bachem Cat # H-5106) described by Li et al (15), one we have designated 512088, a fenchylamine sulfonamide inhibitor described by Rishton et al. (16). Z-Leu-Leu-Leu-H, also known as MG132 (Peptide Institute Cat # 3175-v) described by Tajima et al (17), and DMSO (Aldrich Cat # 27,685-5) as a vehicle control. All drugs were resuspended in DMSO at a concentration of 10 mM. Serial dilutions of the drugs were made in cell culture media [DMEM (Gibco cat # 11965-092) supplemented with 10% fetal bovine serum, 1 mM sodium pyruvate, 100 units/ml penicillin G, 100 ug/ml streptomycin sulfate, and 400 ug/ml Geneticin]. Stable cell lines used for drug testing were H125.3-16 (expressing APP-Sw-KK), APA2 (co-expressing APP-Sw-KK and PS1-wt), APB10 (co-expressing APP-Sw-KK and PS1-DTG385), and APD3 (co-expressing APP-Sw-KK and PS1-M146V). APP-Sw-KK (An APP construct with a di-lysine motif at the C terminus) has been described in U.S. patent application Ser. No. 09/416901 filed Oct. 13, 1999 and also in WO 00/17369 “Alzheimer's Disease Secretase” published Mar. 30, 2000. Cells were plated at a concentration of 2.5×10^4 or 5.0×10^4 cells per well of a 96 well dish on day 1. Cells were treated with various concentrations of drugs on day 3. Conditioned media was harvested 24 hours post-treatment and analyzed in an Elisa assay for Aβ40 or Aβ42 levels (Described below). An MTS assay (Promega) was performed on the cells 24 hours post-treatment to assess toxicity levels of the drugs.
as §3

[4] = tested on: Aβ1-42 production in APB10 cells (APP-Sw-KK and PS1-DTG385); assay: Inhibition assay, stable cell lines: Elisa of Aβ1-42 in conditioned media, PS1-DTG385 cell line; conditions: for dose response profile, Aβ1-42 production: PS1-DTG385 cell line
Description: as §1, §4
Primary Antibody 6E10 was purchased from Senetek PLC (St. Louis, Mo.). Secondary Antibodies 162, 163, 164 and 165 were purchased from New York Institute for Basic Research (Staten Island, N.Y.). β Bachem (Torrence, Calif.). β-Amyloid 1-40 is cat #ZN571) and 1-42 is cat #ZN327) Neutravidin was purchased from Pierce (Rockford, Ill.). The tetramethylbenzidine color development system was purchased from Kirkigaard & Perry Laboratories Inc. (Gaithersburg, Md.). Plates were read on a Molecular Devices Thermomax Plate Reader with integrated software that calculated the data and analyzed confidence values for the samples.
The coating buffer is 0.1M NaHCO3, pH8.2. Wash buffer is Dulbecco's PBS+0.05% Tween 20 (PBST). Blocking buffer is PBST+1% BSA (make up fresh the day of assay). The substrate is TMB Kirkegaard & Perry Labs. (cat.no.50-76-03). Plates are Costar 96 well half area EIA plates (cat.no.3690). Supplemental BSA is supplied as PBST+10% BSA made fresh on the day of assay.
1. Coat half area 96 well plates (Costar 3690) overnight @ 4° C. with capture antibody 6E10 (50 μl/well) made at […] in coating buffer, pH8.2.
2. Wash plates on an automatic plate washer 1× with wash buffer (175 μl/well).
3. Add 75 ul of blocking buffer to each well. Incubate 1 hr. @room temperature, then wash 3×.
4. Make standard curves from fresh aliquots for each amyloid in blocking buffer as follows:
b. Aβ 1-42 (10 μM. stock in DMSO): Make an initial dilution of […] then follow the instructions for Abeta 1-40 starting at the 1:100 dilution.
5. Add 50 μl of each std. (use duplicates) or sample dilution into the appropriate wells.
Incubate the standards and unknown samples @ room temperature for 3 to 4 hrs. If the samples being assayed contain no protein, 5 μl. of supplemental 10% BSA should be added to the sample wells before adding 50 μl. of sample.
6. […]

[5] = tested on: gamma-secretase (Aβ1-40 and Aβ1-42 production in three stable cell lines); assay: Inhibition assay, stable cell lines: overall potency on Aβ1-40 and Aβ1-42 production; conditions: greater than 512088
Description: as §1
The compounds used were L685,458 (Bachem Cat # H-5106) described by Li et al (15), one we have designated 512088, a fenchylamine sulfonamide inhibitor described by Rishton et al. (16). Z-Leu-Leu-Leu-H, also known as MG132 (Peptide Institute Cat # 3175-v) described by Tajima et al (17), and DMSO (Aldrich Cat # 27,685-5) as a vehicle control. All drugs were resuspended in DMSO at a concentration of 10 mM. Serial dilutions of the drugs were made in cell culture media [DMEM (Gibco cat # 11965-092) supplemented with 10% fetal bovine serum, 1 mM sodium pyruvate, 100 units/ml penicillin G, 100 ug/ml streptomycin sulfate, and 400 ug/ml Geneticin]. Stable cell lines used for drug testing were H125.3-16 (expressing APP-Sw-KK), APA2 (co-expressing APP-Sw-KK and PS1-wt), APB10 (co-expressing APP-Sw-KK and PS1-DTG385), and APD3 (co-expressing APP-Sw-KK and PS1-M146V). APP-Sw-KK (An APP construct with a di-lysine motif at the C terminus) has been described in U.S. patent application Ser. No. 09/416901 filed Oct. 13, 1999 and also in WO 00/17369 “Alzheimer's Disease Secretase” published Mar. 30, 2000. […] Conditioned media was harvested 24 hours post-treatment and analyzed in an Elisa assay for Aβ40 or Aβ42 levels (Described below). […]

Compound | dose response profile, inhibition of Aβ1-40 [1] | dose response profile, inhibition of Aβ1-40 [2] | dose response profile, Aβ1-42 production [3] | dose response profile, Aβ1-42 production [4] | shift of the dose response compared with the PS1wt cell lines ([4]; PS1DTG385 cells) | potency relative to 512088 [5] | peak in the dose response (Aβ1-42) ([3]; PS1wt cell lines, FIG. 8) | potentiation of production of Aβ1-42 relative to Aβ1-40 ([4]; PS1DTG385 cells) | peak in the dose response (Aβ1-42) ([4]; PS1DTG385 cells, FIG. 8)
CC(C)C[C@H](NC(=O)[C@H](Cc1ccccc1)C[C@@H](O)[C@H](Cc1ccccc1)NC(=O)OC(C)(C)C)C(=O)N[C@@H](Cc1ccccc1)C(N)=O [L685,458] | biphasic dose response | linear decrease | biphasic | clearly biphasic | slightly lower potency | approximately 10 fold |  |  | 
CC(C)C[C@@H](C=O)NC(=O)[C@H](CC(C)C)NC(=O)[C@H](CC(C)C)NC(=O)OCc1ccccc1 [MG132, Z-Leu-Leu-Leu-H] (Cbz-Leu-Leu-Leu-aldehyde) | not strongly biphasic in any of the cell lines except the parental PS1wt HEK125.3-16 | not strongly biphasic | strongly biphasic | not strongly biphasic |  |  | 10 µM | does not happen | 0.3 µM
